Laboratory results from publication PMC6811774, “Potent, selective, and subunit‐dependent activation of TRPC5 channels by a xanthine derivative” (British Journal of Pharmacology, 2019).

Tests used:
[1] = target: T1, TRPC5:C5 channels (hTRPC5) (Homo sapiens, UniProt Q9UL62); experiment: Excised outside-out patch-clamp, hTRPC5-expressing HEK (Tet+) T-REx cells; assay type: cell-based
T1 construct: expressed in transfected cells
T1 sequence (Q9UL62 1-973): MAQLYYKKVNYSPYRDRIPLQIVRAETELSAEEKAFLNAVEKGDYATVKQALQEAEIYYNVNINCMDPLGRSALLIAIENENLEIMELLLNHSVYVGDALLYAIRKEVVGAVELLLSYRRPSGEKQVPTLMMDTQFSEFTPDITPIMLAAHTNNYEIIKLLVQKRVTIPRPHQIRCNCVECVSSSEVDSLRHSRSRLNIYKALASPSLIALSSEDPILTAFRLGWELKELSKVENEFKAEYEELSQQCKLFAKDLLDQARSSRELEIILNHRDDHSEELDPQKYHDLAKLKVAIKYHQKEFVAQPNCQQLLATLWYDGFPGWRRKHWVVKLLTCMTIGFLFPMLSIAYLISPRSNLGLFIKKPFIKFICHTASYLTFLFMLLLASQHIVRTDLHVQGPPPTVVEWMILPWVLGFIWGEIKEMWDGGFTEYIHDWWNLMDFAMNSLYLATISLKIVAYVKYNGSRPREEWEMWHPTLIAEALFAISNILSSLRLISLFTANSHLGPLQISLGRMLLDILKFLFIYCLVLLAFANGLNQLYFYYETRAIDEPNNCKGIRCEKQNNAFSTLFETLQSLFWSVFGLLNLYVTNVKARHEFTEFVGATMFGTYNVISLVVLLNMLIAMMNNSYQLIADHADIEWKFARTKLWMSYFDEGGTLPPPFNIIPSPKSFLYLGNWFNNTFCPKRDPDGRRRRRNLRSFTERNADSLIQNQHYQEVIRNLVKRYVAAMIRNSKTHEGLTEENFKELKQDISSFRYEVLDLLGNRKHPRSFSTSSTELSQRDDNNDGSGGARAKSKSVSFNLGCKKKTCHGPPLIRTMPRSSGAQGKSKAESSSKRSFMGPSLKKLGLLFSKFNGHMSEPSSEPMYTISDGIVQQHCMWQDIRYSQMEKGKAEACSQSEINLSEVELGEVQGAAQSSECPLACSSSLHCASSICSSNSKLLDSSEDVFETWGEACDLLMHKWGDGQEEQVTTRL
Protocol: (§1) For electrophysiology experiments, cells were plated at a low density of 20–30% onto round or square glass coverslips (13 mm diameter or 5 × 5 mm), and TRPC expression in HEK T‐REx was induced with 1 μg·ml^−1 tetracycline 24 hr before experimentation. Experiments were carried out at room temperature. Extracellular solution consisted of SBS. Patch‐clamp recordings were performed in whole‐cell mode (Figure S7) and in excised outside‐out patch mode under voltage clamp at room temperature using 2–4 MΩ patch pipettes fabricated from borosilicate glass capillaries with an outside diameter of 1 mm and an inside diameter of 0.58 mm (Harvard Apparatus). The voltage protocol comprised voltage ramps applied from −100 to +100 mV every 10 s from a holding potential of 0 mV. The patch‐clamp currents were recorded using Axopatch 200B or HEKA EPC‐800 amplifiers, digitized by a Digidata 1440 or PCI6229 (National Instruments Japan, Tokyo, Japan) and recorded to a computer using pCLAMP10 (Molecular Devices) or WinWCPV4.5 (developed by Dr John Dempster, University of Strathclyde, UK). The data were filtered at 1 kHz and analysed offline using Clampfit 10.2 software or WinWCPV4.5 and Origin 9.1 software (OriginLab, Northampton, MA). The bath solution consisted of SBS and the pipette solution (intracellular solution) contained 145‐mM CsCl, 2‐mM MgCl2, 10‐mM HEPES, 1‐mM EGTA (free acid), 5‐mM ATP (sodium salt), and 0.1‐mM NaGTP, titrated to pH 7.2 with CsOH. All solutions were filtered using a 0.2 μm filter (Sartorius, UK). Comparisons of peak current sizes mediated by EA‐activated TRPC1/4/5 channels in whole cells and excised outside‐out patches are provided in Figure S12.

[2] = target: T2, TRPC4 channels (Homo sapiens, UniProt Q9UBN4); experiment: Excised outside-out patch-clamp, HEK 293 cells transiently expressing hTRPC4; assay type: cell-based; details: 30 nM EA; at 3 to 100 nM AM237
T2 construct: expressed in transfected cells; host or cells: HEK 293 (transient)
T2 sequence (Q9UBN4 1-977): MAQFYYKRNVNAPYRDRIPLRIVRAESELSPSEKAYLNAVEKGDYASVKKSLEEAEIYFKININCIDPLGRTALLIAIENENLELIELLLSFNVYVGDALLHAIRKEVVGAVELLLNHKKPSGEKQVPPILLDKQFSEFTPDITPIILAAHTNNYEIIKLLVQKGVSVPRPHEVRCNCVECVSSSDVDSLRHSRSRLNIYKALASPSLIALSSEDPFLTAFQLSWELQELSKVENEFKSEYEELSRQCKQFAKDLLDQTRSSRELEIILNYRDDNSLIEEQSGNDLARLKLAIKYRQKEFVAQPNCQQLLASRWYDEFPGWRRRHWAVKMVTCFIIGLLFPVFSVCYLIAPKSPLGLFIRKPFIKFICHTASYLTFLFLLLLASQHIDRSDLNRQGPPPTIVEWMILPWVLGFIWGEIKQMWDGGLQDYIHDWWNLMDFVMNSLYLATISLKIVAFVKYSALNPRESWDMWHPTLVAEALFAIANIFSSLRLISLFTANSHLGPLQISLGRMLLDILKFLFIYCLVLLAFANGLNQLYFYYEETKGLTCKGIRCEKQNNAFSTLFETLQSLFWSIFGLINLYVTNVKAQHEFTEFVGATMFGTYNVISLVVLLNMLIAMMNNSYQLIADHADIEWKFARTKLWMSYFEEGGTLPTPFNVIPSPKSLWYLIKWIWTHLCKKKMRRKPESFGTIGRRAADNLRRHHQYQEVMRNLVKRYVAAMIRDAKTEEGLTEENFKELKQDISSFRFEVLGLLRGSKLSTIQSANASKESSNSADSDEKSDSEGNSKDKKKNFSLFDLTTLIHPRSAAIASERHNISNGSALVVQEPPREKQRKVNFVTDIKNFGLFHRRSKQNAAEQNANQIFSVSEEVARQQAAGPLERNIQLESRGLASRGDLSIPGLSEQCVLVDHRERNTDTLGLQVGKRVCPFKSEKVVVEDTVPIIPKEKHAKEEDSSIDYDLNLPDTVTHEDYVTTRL
Protocol: as §1, with “The bath solution consisted of SBS and the pipette solution (intracellular solution) contained 145‐mM CsCl, 2‐mM MgCl2, 10‐mM HEPES, 1‐mM EGTA (free acid), 5‐mM ATP (sodium salt), and 0.1‐mM NaGTP, titrated to pH 7.2 with CsOH. All solutions were filtered using a 0.2 μm filter (Sartorius, UK). Comparisons of peak current sizes mediated by EA‐activated TRPC1/4/5 channels in whole cells and excised outside‐out patches are provided in Figure S12.” left out

In the case of Cn1c(=O)n(CCCO)c(=O)c2c1nc(Oc1ccc(Cl)c(OC(F)(F)F)c1)n2Cc1ccc(Cl)cc1 [AM237], the “Effect on inward and outward currents induced by EA” value ([1]; 30 nM EA, outside-out patch) is reported as “partially suppressed”, the “Amplitude of outward current response compared to response induced by 30-nM EA” value ([1]; +100 mV, outside-out patch) is reported as “up to 45%” and the “Amplitude of inward current response compared to response induced by 30-nM EA” value ([1]; -100 mV, outside-out patch) is reported as “up to 25%”. The “Concentration giving peak current” value ([1]; in the presence of 1- and 3-nM Pico145, decreasing at 300 nM and 1 μM) was 100 nM, the “Concentration giving maximum current response” value ([1]; no Pico145, lower responses at 100 nM) was 30 nM and the “Inhibition of currents induced by EA” value [2] was “full inhibition”.
